According to patent publication US20150105252A1, “SUBSTITUTED PYRAZOLES AS HERBICIDES” (E I DU PONT DE NEMOURS AND COMPANY, priority 2013, published 2015):

Key:
foxtail, giant [1] = assay: Test A preemergence; format: in vivo, Setaria faberii; details: Preemergence, 1000 g ai/ha; 0 to 100 scale, 0 no effect, 100 complete control
Summary of the method: (§1)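 Visual injury rating, 0–100 (0 no effect, 100 complete control), vs untreated controls ~10 days after treatment in greenhouse. Pre: directed soil spray on seeded loam/sand. Post: 2–10 cm plants, 1–2 leaf stage. Formulation: non-phytotoxic solvent mix + surfactant.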

crabgrass, large [2] = assay: Test A postemergence; format: in vivo, Digitaria sanguinalis; details: Postemergence, 1000 g ai/ha; visual rating after approx. 10 days, 0 to 100 scale (0 no effect, 100 complete control)
Summary of the method: as §1

crabgrass, large [3] = assay: Test A preemergence; format: in vivo, Digitaria sanguinalis; details: Preemergence, 1000 g ai/ha; 0 to 100 scale, 0 no effect, 100 complete control
Summary of the method: as §1

wheat [4] = assay: Test A postemergence; format: in vivo, Triticum aestivum; details: Postemergence, 1000 g ai/ha; visual rating after approx. 10 days, 0 to 100 scale (0 no effect, 100 complete control)
Summary of the method: as §1

wheat [5] = assay: Test A preemergence; format: in vivo, Triticum aestivum
Summary of the method: as §1

morningglory [6] = assay: Test A postemergence; format: in vivo, Ipomoea spp.; details: Postemergence, 1000 g ai/ha; visual rating after approx. 10 days, 0 to 100 scale (0 no effect, 100 complete control)
Summary of the method: as §1

morningglory [7] = assay: Test A preemergence; format: in vivo, Ipomoea spp.; details: Preemergence, 1000 g ai/ha; 0 to 100 scale, 0 no effect, 100 complete control
Summary of the method: as §1

barnyardgrass [8] = assay: Test A postemergence; format: in vivo, Echinochloa crus-galli; details: Postemergence, 1000 g ai/ha; visual rating after approx. 10 days, 0 to 100 scale (0 no effect, 100 complete control)
Summary of the method: as §1

velvetleaf [9] = assay: Test A postemergence; format: in vivo, Abutilon theophrasti; details: Postemergence, 1000 g ai/ha; visual rating after approx. 10 days, 0 to 100 scale (0 no effect, 100 complete control)
Summary of the method: as §1

barnyardgrass [10] = assay: Test A preemergence; format: in vivo, Echinochloa crus-galli; details: Preemergence, 1000 g ai/ha; 0 to 100 scale, 0 no effect, 100 complete control
Summary of the method: as §1

foxtail, giant [11] = assay: Test A postemergence; format: in vivo, Setaria faberii; details: Postemergence, 1000 g ai/ha; visual rating after approx. 10 days, 0 to 100 scale (0 no effect, 100 complete control)
Summary of the method: as §1

pigweed [12] = assay: Test A postemergence; format: in vivo, Amaranthus retroflexus; details: Postemergence, 1000 g ai/ha; visual rating after approx. 10 days, 0 to 100 scale (0 no effect, 100 complete control)
Summary of the method: as §1

corn [13] = assay: Test A preemergence; format: in vivo, Zea mays; details: Preemergence, 1000 g ai/ha; 0 to 100 scale, 0 no effect, 100 complete control
Summary of the method: as §1

velvetleaf [14] = assay: Test A preemergence; format: in vivo, Abutilon theophrasti; details: Preemergence, 1000 g ai/ha; 0 to 100 scale, 0 no effect, 100 complete control
Summary of the method: as §1

pigweed [15] = assay: Test A preemergence; format: in vivo, Amaranthus retroflexus; details: Preemergence, 1000 g ai/ha; 0 to 100 scale, 0 no effect, 100 complete control
Summary of the method: as §1

corn [16] = assay: Test A postemergence; format: in vivo, Zea mays; details: Postemergence, 1000 g ai/ha; visual rating after approx. 10 days, 0 to 100 scale (0 no effect, 100 complete control)
Summary of the method: as §1

[17] = Preemergence, 1000 g ai/ha, 0 to 100 scale, 0 no effect, 100 complete control
[18] = preemergence, 500 g ai/ha, visual injury after approx. 10 days, 0 to 100 scale (0 no effect, 100 complete control)

SMILES	Foxtail, Giant plant response rating (foxtail, giant [1])	Crabgrass, Large plant response rating (crabgrass, large [2])	Crabgrass, Large plant response rating (crabgrass, large [3])	Wheat plant response rating (wheat [4])	Wheat plant response rating (wheat [5]; [17])	Morningglory plant response rating (morningglory [6])	Morningglory plant response rating (morningglory [7])	Barnyardgrass plant response rating (barnyardgrass [8])	Velvetleaf plant response rating (velvetleaf [9])	Barnyardgrass plant response rating (barnyardgrass [10])	Foxtail, Giant plant response rating (foxtail, giant [11])	Pigweed plant response rating (pigweed [12])	Corn plant response rating (corn [13])	Velvetleaf plant response rating (velvetleaf [14])	Pigweed plant response rating (pigweed [15])	Corn plant response rating (corn [16])	Wheat plant response rating (wheat [5]; [18])
C#CCNC(=O)c1cc(CC)n(Cc2cccc(C(F)(F)F)c2)n1 [Compound 41]	50	20	30	10	0	100	20	10	10	10	20	30	0	0	10	20	–
CCc1cc(C(=O)N(C)CC)nn1Cc1cccc(C(F)(F)F)c1 [Compound 42]	30	50	40	0	0	60	30	20	40	0	30	60	0	0	10	30	–
CCc1cc(C(=O)NC(C)C)nn1Cc1cccc(C(F)(F)F)c1 [Compound 47]	100	70	100	40	50	100	90	60	60	80	80	70	40	60	80	40	–
CCc1cc(C(=O)NC(C)(C)C)nn1Cc1cccc(C(F)(F)F)c1 [Compound 50]	30	10	10	0	0	10	0	10	10	10	30	30	0	0	0	20	–
C#CCNC(=O)c1cc(CC)n(Cc2cccc(OC(F)(F)F)c2)n1 [Compound 54]	20	10	40	10	0	70	0	10	60	10	10	70	0	0	90	20	–
C=CCNC(=O)c1cc(CC)n(Cc2cccc(OC(F)(F)F)c2)n1 [Compound 58]	20	30	70	0	0	50	20	20	50	10	20	60	0	0	70	20	0
CCc1cc(C(=O)NC(C)(C)C)nn1Cc1cccc(OC(F)(F)F)c1 [Compound 59]	10	10	10	0	0	50	0	10	10	0	20	50	0	0	0	10	10
CCc1cc(C(=O)NCC(C)C)nn1Cc1cccc(OC(F)(F)F)c1 [Compound 60]	100	30	90	20	0	100	20	20	60	30	40	60	0	0	90	30	0
CCc1cc(C(=O)N(C)OC)nn1Cc1cccc(C(F)(F)F)c1 [Compound 66]	100	20	50	10	0	50	30	20	40	0	40	50	0	20	50	30	0
